Experimental findings from patent publication US9815835B2, “Substituted polycyclic carbamolypyridone derivative” (priority 2009, dated 2017) are described below.

Each structure is given as a SMILES string.

The target in experiment [1] is cap-dependent endonuclease (RNP fraction containing PB1•PB2•PA complex) (Influenza A virus, UniProt P15659). As to the kind of experiment: biochemical. Particulars: RNP from A/WSN/33 virus, capped Cy3/BHQ2 30mer RNA substrate, 60 minutes at room temperature; read-out: CEN IC50.
For experiment [2], the system named is influenza virus. Description: microbe, parasite or virus in culture. The format is cell-based, influenza virus (MDBK or MDCK cells). Particulars: unidentified influenza virus, 72 h, read-out: CPE EC50, effective concentration to achieve 50% CPE inhibition, 3 days incubation, WST-8.

The term IC50 denotes the point on the concentration scale where inhibition reaches its midpoint. Consider `N#CCN1C[C@H](C(c2ccccc2)c2ccccc2)n2ccc(=O)c(O)c2C1=O` [Example 574], for which the IC50 in experiment [1] was 165 nM. The EC50 in experiment [2] is 442 nM.

With `CC(C#N)N1CC(C2c3ccccc3CCc3ccccc32)n2ccc(=O)c(O)c2C1=O` (stereo not shown) [Example 575], the IC50 in experiment [1] worked out at 58 nM. Moreover, the EC50 in experiment [2] turned out to be 87 nM.

With `CC(C)N1C[C@H](C2c3ccccc3CCc3ccccc32)n2ccc(=O)c(O)c2C1=O` [Example 576], the IC50 in experiment [1] was 63 nM. In addition, in experiment [2], the EC50 was found to be 27 nM.

As to `COCCN1CN(C(c2ccccc2)c2ccccc2)n2c(CC#N)cc(=O)c(O)c2C1=O` [Example 577], the IC50 in experiment [1] was determined as 233 nM. Moreover, in experiment [2], the EC50 amounted to 337 nM.

As for `CC(C)N1CN(C(c2ccccc2)c2ccccc2)n2c(N)cc(=O)c(O)c2C1=O` [Example 581], in experiment [1], the 50% inhibitory concentration (IC50) amounted to 83 nM. Moreover, the EC50 in experiment [2] is 480 nM.
